Measurements as given in publication PMC11435328, “An Innovative Inhibitor with a New Chemical Moiety Aimed at Biliverdin IXβ Reductase for Thrombocytopenia and Resilient against Cellular Degradation” (Pharmaceutics, 2024).
Where two headings read alike, the source gives them in different places.

Assays:
half-holo BLVRB = system: T1, half-holo BLVRB; assay: 1H-15N HSQC of half-holo BLVRB with 5-ASA; assay type: binding, human; conditions: 0.1 mM half-holo BLVRB, 1 mM 5-ASA, HSQC (Figure S3)
T1 construct: His6 (N, cleaved yes); made in house; host or cells: E. coli BL21(DE3), pET-21b
Description: All NMR experiments were performed with the Bruker 800 MHz spectrometer at 25 °C. A total of 0.2 mM ^15N-labeled BLVRB or apo-BLVRB was prepared in buffer (pH 6.5, 50 mM Bis-tris, 50 mM NaCl, and 5% D2O), and their ^1H-^15N heteronuclear single-quantum coherence (HSQC) spectra were recorded in the presence and absence of drug molecules. The 1-dimensional (1D) ^1H spectra to monitor the enzyme reactions were conducted in PBS buffer. The chemical shift perturbation (CSP) data were presented using the square root of (ΔH)^2 + [(ΔN)/6]^2 to normalize the relative effects from the CSPs of ^1H and ^15N [44]. The diffusion-ordered spectroscopy (DOSY) spectra were measured using the ledbpgppr2s, with 80 ms diffusion delay, 2 s relaxation delay, and 32 gradient strength increments. The backbone assignments were referenced from BMRB Entry ID: 27463 for holo BLVRB and Entry ID: 27462 for apo BLVRB to assign the spectra in the presence and absence of the drug.
Figure S3. 5-ASA binding of half-holo BLVRB: (A) The 1H-15N HSQC spectra of 0.1 mM half-holo BLVRB in the absence (black) and presence (red) of 1 mM 5-ASA. (B) Chemical shift diﬀerences between half-holo BLVRB and BLVRB in complex with OSK (black) and 5-ASA (red). (C) NMR ti-tration data for binding to half-holo BLVRB. […]

[1] = cited from earlier work
[2] = molecular target: T2, human BLVRB (half-holo BLVRB) (Homo sapiens, UniProt P30043); assay: Isothermal titration calorimetry (ITC) of drug binding to half-holo BLVRB; conditions: 25 °C
T2 construct: His6 (N, cleaved yes); made in house; host or cells: E. coli BL21(DE3), pET-21b
T2 sequence (P30043 1-206): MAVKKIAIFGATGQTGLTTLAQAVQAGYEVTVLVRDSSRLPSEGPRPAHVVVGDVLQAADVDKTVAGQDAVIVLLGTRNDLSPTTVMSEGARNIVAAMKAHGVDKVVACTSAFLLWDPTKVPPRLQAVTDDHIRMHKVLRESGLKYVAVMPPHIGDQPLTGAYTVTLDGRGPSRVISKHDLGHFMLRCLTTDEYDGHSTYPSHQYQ
Description: (§1) The human BLVRB protein was prepared following the previously reported method. Briefly, the N-terminal His6-tagged BLVRB was expressed in the E. coli BL21(DE3) strain using the pET-21b protein expression vector. The transformed E. coli cells were grown in LB and M9 media at 37 °C to express the nonlabeled and isotope-labeled (^15N or ^13C/^15N) BLVRB proteins, respectively. To induce protein expression, 0.5 mM IPTG was added to the cultures when the OD600 reached 0.8, and then the cells were harvested after ~3–4 h. Cells were lysed by sonication in buffer (pH 8.0, 25 mM Tris-HCl, 500 mM NaCl, and 10 mM β-mercaptoethanol). The BLVRB protein was first purified by His-tag affinity column chromatography using the HisTrap HP column (Cytiva). To remove the His-tag, the protein elution was dialyzed in buffer (pH 8.0, 50 mM Tris-HCl, and 1 mM dithiothreitol) overnight at 4 °C, after adding thrombin (~5 units per mg protein). Since thrombin bound to HiTrap-Q HP column at pH 8.0, ion-exchange column chromatography was performed with buffer (pH 8.0, 25 mM Tris-HCl, and 1 mM dithiothreitol), and then the elution was performed with 1.0 M NaCl gradient; BLVRB and thrombin eluted at ~150 and ~300 mM NaCl, respectively. To separate the His6-tagged BLVRB from the completely cleaved BLVRB, the HisTrap HP column was tandemly attached to the next of the HiTrap-Q column. The BLVRB protein was further purified by size exclusion chromatography (SEC) using the HiLoad 16/600 Superdex 75 (Cytiva) with nonbuffered solution (50 mM NaCl and 1 mM dithiothreitol). The protein fractions were concentrated using an ultracentrifugal filter with 10 kDa MWCO (Millipore, Burlington, MA, USA) and then were stored at −70 °C before use. Apo-BLVRB was prepared using the previously reported refolding method, with additional column chromatography steps. Briefly, the purified BLVRB was denatured in buffer (pH 7.5, 25 mM Tris-HCl, 10 mM β-mercaptoethanol, and 6.0 M urea) and then applied to the HisTrap HP column. After washing with buffer (pH 5.0, 25 mM Na-acetate, 10 mM β-mercaptoethanol, and 6.0 M urea), they were eluted with an additional 1.0 M NaCl gradient. After 2-fold dilution with buffer (pH 5.0, 20 mM Na-acetate, 10 mM β-mercaptoethanol, and 6.0 M urea), apo-BLVRB was further purified by cation-exchange column chromatography using the HiTrap-SP column (Cytiva). Protein elution was performed by 1.0 M NaCl gradient in the presence of 6.0 M urea. The protein was refolded by dialysis in buffer (pH 6.5, 50 mM Bis-tris, 150 mM NaCl, and 1 mM DTT). After removing the aggregate (~20%) by centrifuge, it was purified by SEC using the HiLoad 16/600 Superdex 75 with buffer (pH 6.5, 10 mM Bis-tris, 50 mM NaCl, and 1 mM DTT). The apo-BLVRB solution was concentrated and then stored at −70 °C. Although thawing the frozen sample caused ~10% precipitation of apo-BLVRB, the maintenance of the structure was confirmed by ^1H-^15N HSQC spectrum. The concentration was also determined using UV absorption with an extinction coefficient (A280) of 14,440 M^−1⋅cm^−1. The purity was confirmed by SDS-PAGE gel analysis.
The ITC experiment was conducted in buffer (pH 6.5, 50 mM Bis-tris, 50 mM NaCl, and 0.1 mM TCEP) using a Microcal Auto-iTC200 (Malvern Instruments, Malvern, UK) at 25 °C. The calorimetric cell (200 μL) and syringe (40 μL) were loaded with 0.09 mM BLVRB and 1.1 mM drug (OSK or OSA), respectively. The ITC data were analyzed after subtracting the heat from blank injections that were measured under the same conditions but in the absence of BLVRB. Data processing was carried out using the Origin software provided by the manufacturer, where the fittings were performed with a one-site binding model.

apo-BLVRB = molecular target: T3, apo-BLVRB (Homo sapiens, UniProt P30043); assay: NMR 1H-15N HSQC chemical shift perturbation titration of apo-BLVRB; assay type: binding; conditions: for Kd: Apo-BLVRB from NMR CSP experiment; for binding to apo-BLVRB: HSQC of apo-BLVRB titrated with drug (Figure S4)
T3 construct: His6 (N); made in house; host or cells: E. coli BL21(DE3), pET-21b
T3 sequence (P30043 1-206): T2 sequence (P30043 1-206)
Description: as §1, with “After 2-fold dilution with buffer (pH 5.0, 20 mM Na-acetate, 10 mM β-mercaptoethanol, and 6.0 M urea), apo-BLVRB was further purified by cation-exchange column chromatography using the HiTrap-SP column (Cytiva). Protein elution was performed by 1.0 M NaCl gradient in the presence of 6.0 M urea. The protein was refolded by dialysis in buffer (pH 6.5, 50 mM Bis-tris, 150 mM NaCl, and 1 mM DTT). After removing the aggregate (~20%) by centrifuge, it was purified by SEC using the HiLoad 16/600 Superdex 75 with buffer (pH 6.5, 10 mM Bis-tris, 50 mM NaCl, and 1 mM DTT). The apo-BLVRB solution was concentrated and then stored at −70 °C. Although thawing the frozen sample caused ~10% precipitation of apo-BLVRB, the maintenance of the structure was confirmed by ^1H-^15N HSQC spectrum.” left out, “The purity was confirmed by SDS-PAGE gel analysis.” left out
(§2) All NMR experiments were performed with the Bruker 800 MHz spectrometer at 25 °C. A total of 0.2 mM ^15N-labeled BLVRB or apo-BLVRB was prepared in buffer (pH 6.5, 50 mM Bis-tris, 50 mM NaCl, and 5% D2O), and their ^1H-^15N heteronuclear single-quantum coherence (HSQC) spectra were recorded in the presence and absence of drug molecules. […] The diffusion-ordered spectroscopy (DOSY) spectra were measured using the ledbpgppr2s, with 80 ms diffusion delay, 2 s relaxation delay, and 32 gradient strength increments. […]

BLVRB = molecular target: T4, BLVRB (Homo sapiens, UniProt P30043); assay: BLVRB enzyme activity assay (NADPH absorption at 340 nm, FMN substrate); assay type: biochemical; conditions: for uncompetitive inhibition constant (Kiu) / Ki: 0.5 µM BLVRB, 100 µM FMN, 100 µM NADPH, PBS, 0.5% DMSO, mixed inhibition model; for Ki: read-out: competitive inhibition constant (Kic); for inhibition pattern (Lineweaver–Burk plot): BLVRB in the presence of NADPH; for maximum velocity (Vm): enzyme parameter of BLVRB from the fit of the data set with this inhibitor
T4 construct: His6 (N, cleaved yes); made in house; host or cells: E. coli BL21(DE3), pET-21b
T4 sequence (P30043 1-206): T2 sequence (P30043 1-206)
Description: Enzyme kinetics were monitored using the absorption of NADPH at 340 nm with the SpectraMax Gemini EM Microplate Reader (Molecular Devices, San Jose, CA, USA). The enzyme reactions were conducted with 0.5 µM BLVRB, 100 µM FMN, and 100 µM NADPH in PBS buffer containing 0.5% DMSO in the presence of various concentrations of inhibitors (OSK and OSA). The initial velocities of the reactions were estimated from data collected over 5 min and were fitted to the Michaelis–Menten equation. The inhibition model and inhibition constants were determined using the in-house Python script of nonlinear least squares regression fitting.

[3] = system: T5, Escherichia coli (E. coli) AzoR; assay: Cleavage by partially purified AzoR fraction, monitored by 1D 1H NMR; assay type: in vitro ADME; conditions: incubation with column fraction containing AzoR activity and NAD(P)H
T5 construct: E. coli DH5α cells were cultured in LB medium to obtain AzoR protein at 37 °C; endogenous in cells; host or cells: E. coli DH5α induced with 2-MHQ; Hitrap-Q anion-exchange fraction
Description: E. coli DH5α cells were cultured in LB medium to obtain AzoR protein at 37 °C. Since various electrophilic quinones increase the mRNA level of the acpD gene-encoding AzoR protein [36], 0.5 mM methylhydroquinone (2-MHQ) was added to the culture when the optical density of the cells at 600 nm (OD600) reached 0.8. The cells were harvested by centrifugation after ~3–4 h. To enrich the AzoR protein, anion-exchange column chromatography using the Hitrap-Q HP column (Cytiva, Marlborough, MA, USA) was performed, in which the column was pre-equilibrated with buffer (pH 8.0, 25 mM Tris-HCl), and then 1.0 M NaCl gradient was applied to elute proteins. The AzoR activity in the elution fractions was measured by the enzyme activity assay using 0.1 mM menadione and 0.1 mM NADH, in which decreasing absorption at 340 nm was measured following the previously reported method. […]
as §2

[4] = molecular target: T2, human BLVRB (half-holo BLVRB); design: method as in PMID 34957824; conditions: ITC, 25 °C; cited from earlier work
rats = system: rats; design: method as in PMID 2160137; conditions: cited from earlier work

Row | Compound | Kd [2] [nM] | TΔS [2] [kcal/mol] | ΔG [2] [kcal/mol] | ΔH [2] [kcal/mol] | Kd (apo-BLVRB) [µM] | binding to apo-BLVRB (apo-BLVRB) | uncompetitive inhibition constant (Kiu) (BLVRB) [µM] | Ki (BLVRB) [nM] | inhibition pattern (Lineweaver–Burk plot) (BLVRB) | maximum velocity (Vm) (BLVRB) [µM/min] | cleavage by AzoR [3] | other results
1 | Nc1ccc(O)c(C(=O)O)c1 [5-ASA, 5-aminosalicylic acid] | – | – | – | – | – | – | – | – | – | – | – | binding to BLVRB (half-holo BLVRB): reduced significantly
2 | O=C(O)c1cc(/N=N/c2ccc(O)c(C(=O)O)c2)ccc1O [Olsalazine, olsalazine] | 150 ± 230 | -4.22 ± 0.13 | -9.32 ± 0.09 | -13.54 ± 0.08 | 9.31 ± 2.41 | able to bind to the apo-BLVRB | 0.79 ± 0.06 | 550 ± 40 | mixed inhibition pattern | 4.71 ± 0.09 | cleavage of its diazenyl bond and the formation of 5-ASA | plasma elimination half-life [1]: approximately 1 h
3 | O=C(O)c1cc(/C=C/c2ccc(O)c(C(=O)O)c2)ccc1O [Olsalkene, (E)-5,5′-(ethene-1,2-diyl)bis(2-hydroxybenzoic acid)] | 140 ± 270 | -5.98 ± 0.17 | -9.33 ± 0.11 | -15.31 ± 0.12 | 11.4 ± 2.22 | able to bind to the apo-BLVRB | 0.61 ± 0.06 | 560 ± 100 | mixed inhibition pattern | 4.80 ± 0.16 | remains intact and is not cleaved by AzoR | –
4 | O=C([O-])c1c(Cl)c(Cl)c(Cl)c(Cl)c1-c1c2cc(Br)c(=O)c(Br)c-2oc2c(Br)c([O-])c(Br)cc12.[Na+].[Na+] [Phloxine B, phloxine B] | – | – | – | – | – | – | – | – | – | – | – | Kd [4]: 1360 ± 220 nM; TΔS [4]: 4.12 ± 0.12 kcal/mol; ΔG [4]: -8.00 ± 0.10 kcal/mol; ΔH [4]: -3.88 ± 0.06 kcal/mol
5 | O=C1OC2(c3ccccc31)c1cc(I)c(O)c(I)c1Oc1c2cc(I)c(O)c1I [erythrosin B] | – | – | – | – | – | – | – | – | – | – | – | effect of chronic administration (rats): thyroid stimulation
